What was measured:
CYP1A2 = target: T1, CYP1A2 (Homo sapiens, UniProt P05177); experiment: CYP450 drug metabolism inhibition, 1A2; format: in vitro ADME; details: criterion remaining activity >50%
T1 sequence (P05177 1-516): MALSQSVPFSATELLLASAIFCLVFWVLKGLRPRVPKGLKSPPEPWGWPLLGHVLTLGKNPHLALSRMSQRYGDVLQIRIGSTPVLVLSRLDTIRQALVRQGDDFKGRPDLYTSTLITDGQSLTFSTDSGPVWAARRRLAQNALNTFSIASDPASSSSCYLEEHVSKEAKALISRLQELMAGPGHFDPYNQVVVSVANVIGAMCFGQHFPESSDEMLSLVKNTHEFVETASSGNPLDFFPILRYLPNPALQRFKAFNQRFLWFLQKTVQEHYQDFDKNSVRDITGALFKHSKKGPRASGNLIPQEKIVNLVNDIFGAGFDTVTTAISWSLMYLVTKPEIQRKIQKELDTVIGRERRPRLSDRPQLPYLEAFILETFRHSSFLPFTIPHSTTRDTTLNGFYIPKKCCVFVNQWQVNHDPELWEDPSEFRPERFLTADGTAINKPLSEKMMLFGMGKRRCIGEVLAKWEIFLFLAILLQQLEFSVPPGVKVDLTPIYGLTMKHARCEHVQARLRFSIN
Experimental: (§1) In order to analyze the drug metabolism of PMSA compound, ADME evaluation was requested to the Daegu-Gyeongbuk Advanced Medical industry Promotion Foundation (DGMIF). Metabolic stability of drugs using liver microsomes (microsomal stability), drug metabolism inhibitory ability by five CYP450 enzymes, plasma metabolism (plasma stability), plasma protein binding, and intestinal permeability of drugs (PAMPA, parallel artificial membrane permeability assay) were analyzed. […] Further, it was confirmed that the permeability resistance was excellent (see Table 3 below). On the other hand, for one of PMSA derivatives, that is, 2-(N-(3,5-dimethylphenyl)methylsulfinamido)-N-(2 (phenylthio)phenyl)propanamide (#25-D5), intestinal permeability of the drug (PAMPA) was not measured.

CYP2C9 = CYP2C9 (Homo sapiens, UniProt P11712); experiment: CYP450 drug metabolism inhibition, 2C9; format: in vitro ADME; details: criterion remaining activity >50%
Experimental: as §1

CYP3A4 = CYP3A4 (Homo sapiens, UniProt P08684); experiment: CYP450 drug metabolism inhibition, 3A4; format: in vitro ADME; details: for CYP 3A4 remaining activity: criterion remaining activity >50%
Experimental: as §1

[1] = test system: osteoblast progenitor cells treated with hBMP2; experiment: Osteoblast differentiation, ALP staining; format: cell-based, mouse; details: 7 days
Experimental: After collecting cells from C57BL/6J mouse calvaria at the age of 3 days, the cells were seeded on a 96-well plate in an amount of 4×10^3 cells per well, and then treated with 100 ng/ml of hBMP2 as a differentiation inducer. Simultaneously, the cells were treated with the compound of the present invention and cultured for 7 days, followed by ALP staining to assess differentiation influence. Specific experimental methods and results are as follows.
Precursor cells isolated from the mouse skull were treated with hBMP2 (Bone morphogenic protein 2, Sino biological, 10426-HNAE, 100 ng/ml) to induce differentiation into osteoblasts. Differentiated osteoblasts could be discriminated through alkaline phosphatase (ALP) staining as an osteoblast-specific protein. When the progenitor cells were treated with hBMP2, each of the 35D35 compounds was also used for treatment, followed by culturing the cells for 7 days while changing the medium every 2 to 3 days.
4×10^3 osteoblast progenitor cells were put into a 96-well plate and treated with hBMP2 to induce differentiation of osteoblasts. At this time, the cells were treated with #25 (PMSA-3-Ac) and #25-D12 (PMSA-2-OMe-5-Cl), respectively, and then cultured for 7 days.
After discarding the ethanol, the remaining product was washed with HBSS, followed by adding a NBT solution (Sigma, B1911) in an amount of 100 μl per well and staining for 15 minutes. By washing twice with water, the remaining dye was eliminated. After ALP staining, a degree of color development was measured using Image J software, and then graphed for comparison. […] In other words, it can be seen that the differentiation of osteoblasts is not affected by treatment with the PMSA compound.
Precursor cells isolated from the mouse skull were treated with hBMP2 (Bone morphogenic protein 2, Sino biological, 10426-HNAE) to induce differentiation into osteoblasts. […]
After ALP staining, the degree of color development was measured using Image J software, and then graphed for comparison. […]

mouse bone marrow cells = experiment: Bone resorption assay on calcium phosphate coated plate; format: cell-based; details: 6 days; for decrease in bone resorption ability: compared to differentiated osteoclasts (Ctrl) not treated, fluorescence absorbance
Experimental: Bone resorption ability was confirmed using a bone resorption assay kit (Cosmo Rio, CSR-BRA). 2.5×10^4 mouse bone marrow cells per well were put into a 48-well plate coated with calcium phosphate, followed by treating the cells with PMSA to perform differentiation for 6 days. After 6 days, a fluorescence absorbance was measured with the culture medium to confirm the bone absorption ability. Further, decomposition degree of calcium phosphate was photographed a microscope to confirm the bone resorption ability. […] In FIG. 4, BMMs refer to monocytes that are not differentiated osteoclasts.
Further, the bone resorption ability was confirmed using a bone resorption assay kit (Cosmo Bio, CSR-BRA). 2.5×10^4 mouse bone marrow cells per well were put into a 48-well plate coated with calcium phosphate, and were differentiated for 6 days while being treated with PSTP-3,5-Me. After 6 days, the fluorescence absorbance was measured with the culture medium to confirm the bone absorption ability.

CYP3A4, sequence (P08684 whole entry): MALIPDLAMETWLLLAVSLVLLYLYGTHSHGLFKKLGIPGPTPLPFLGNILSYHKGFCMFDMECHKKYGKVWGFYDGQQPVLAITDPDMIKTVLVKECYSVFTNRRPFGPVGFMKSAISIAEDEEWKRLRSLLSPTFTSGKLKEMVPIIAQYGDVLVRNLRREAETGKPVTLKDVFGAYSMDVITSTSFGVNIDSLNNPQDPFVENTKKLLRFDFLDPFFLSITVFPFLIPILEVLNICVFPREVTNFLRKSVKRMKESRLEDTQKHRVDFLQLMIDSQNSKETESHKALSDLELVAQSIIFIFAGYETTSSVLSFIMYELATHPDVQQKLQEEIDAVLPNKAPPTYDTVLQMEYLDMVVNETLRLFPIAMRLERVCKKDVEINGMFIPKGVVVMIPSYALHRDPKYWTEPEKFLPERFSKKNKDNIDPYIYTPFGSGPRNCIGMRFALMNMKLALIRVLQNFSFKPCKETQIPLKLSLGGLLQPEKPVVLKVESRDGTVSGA
CYP2C9, sequence (P11712 whole entry): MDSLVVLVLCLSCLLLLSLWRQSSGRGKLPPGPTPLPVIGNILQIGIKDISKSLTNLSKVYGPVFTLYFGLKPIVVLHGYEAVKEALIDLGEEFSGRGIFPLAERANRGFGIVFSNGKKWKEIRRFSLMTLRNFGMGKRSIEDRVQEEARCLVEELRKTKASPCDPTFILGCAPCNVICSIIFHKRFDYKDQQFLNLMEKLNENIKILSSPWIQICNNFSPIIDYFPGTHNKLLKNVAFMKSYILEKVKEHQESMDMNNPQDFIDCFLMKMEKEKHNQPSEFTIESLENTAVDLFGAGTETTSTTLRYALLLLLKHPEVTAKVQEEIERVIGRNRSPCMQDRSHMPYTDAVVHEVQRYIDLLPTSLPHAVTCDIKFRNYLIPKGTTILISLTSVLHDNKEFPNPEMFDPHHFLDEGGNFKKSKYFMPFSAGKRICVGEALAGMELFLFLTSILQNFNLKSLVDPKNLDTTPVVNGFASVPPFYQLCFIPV

CYP 1A2 remaining activity (CYP1A2) [%] | CYP 2C9 remaining activity (CYP2C9) [%] | utility as a drug such as influence on activity of CYP3A4 (CYP3A4; compared with other derivatives) | CYP 3A4 remaining activity (CYP3A4) [%] | Structure (SMILES) | osteoblast differentiation (ALP staining) [1] | bone resorption region (optical microscope) (mouse bone marrow cells) | bone resorption ability (fluorescence intensity) (mouse bone marrow cells; RANKL, 0, 3 or 10 μM) | decrease in bone resorption ability (mouse bone marrow cells) [%]
85.1 | 52.4 | not higher than other derivatives | 13.4 | Cc1cc(C)cc(N([C@@H](C)C(=O)Nc2ccccc2Sc2ccccc2)S(C)(=O)=O)c1 [#25-D5, N^2-(3,5-dimethylphenyl)-N^2-(methylsulfonyl)-N-[2-(phenylthio)phenyl]alanineamide] | not affected | not largely shown | significantly decreased in a dose-dependent manner | –
77.9 | 59.8 | – | 26 | COc1ccc(Cl)cc1N(CC(=O)Nc1ccccc1Sc1ccccc1)S(C)(=O)=O [#25-D12, 2-(N-(5-chloro-2-methoxyphenyl)methylsulfonamido)-N-(2-(phenylthio)phenyl)acetamide] | did not inhibit or activate | – | – | 12.5
85.7 | 63.7 | – | 53.3 | CC(=O)c1cccc(N(CC(=O)Nc2ccccc2Sc2ccccc2)S(C)(=O)=O)c1 [#25, 2-(N-(3-acetylphenyl)methylsulfonamido)-N-(2-(phenylthio)phenyl)acetamide] | did not inhibit or activate | – | – | 16
